Measured values from PMC7694328, “Synthesis and Glycosidase Inhibition Properties of Calix[8]arene-Based Iminosugar Click Clusters” (Pharmaceuticals, 2020).
Where “and” joins values, the source holds several entries; their conditions need not be identical. Identical values can stand only once. Like-named read-outs stand apart in the source and are kept apart here.

Assays:
[1] = target: T1, Jack Bean α-mannosidase (JBα-man) (Canavalia ensiformis, UniProt C0HJB3); conditions: cited from earlier work; for rp/n: cyclopeptoid-based clusters
T1 construct: two LH heterodimers, each constituted by two distinct chains, L and H; purchased Sigma Aldrich
T1 sequence (C0HJB3 1-562 limits assumed): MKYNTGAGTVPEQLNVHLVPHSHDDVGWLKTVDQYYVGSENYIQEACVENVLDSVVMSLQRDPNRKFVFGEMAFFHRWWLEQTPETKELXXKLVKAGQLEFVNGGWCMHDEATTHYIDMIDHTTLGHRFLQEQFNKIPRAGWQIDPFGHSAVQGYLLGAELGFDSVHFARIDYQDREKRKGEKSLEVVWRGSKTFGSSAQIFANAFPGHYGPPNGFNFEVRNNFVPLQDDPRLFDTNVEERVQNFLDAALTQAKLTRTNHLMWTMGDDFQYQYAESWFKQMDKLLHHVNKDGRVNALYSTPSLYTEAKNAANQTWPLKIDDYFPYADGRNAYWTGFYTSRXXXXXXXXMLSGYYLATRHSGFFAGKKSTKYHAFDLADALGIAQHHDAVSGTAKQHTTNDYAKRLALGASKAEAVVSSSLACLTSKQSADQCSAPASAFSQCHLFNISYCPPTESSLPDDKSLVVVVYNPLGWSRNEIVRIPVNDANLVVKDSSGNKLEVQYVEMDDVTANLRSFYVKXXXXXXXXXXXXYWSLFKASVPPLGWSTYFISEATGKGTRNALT
T1 sequence (C0HJB3 563-981 limits assumed): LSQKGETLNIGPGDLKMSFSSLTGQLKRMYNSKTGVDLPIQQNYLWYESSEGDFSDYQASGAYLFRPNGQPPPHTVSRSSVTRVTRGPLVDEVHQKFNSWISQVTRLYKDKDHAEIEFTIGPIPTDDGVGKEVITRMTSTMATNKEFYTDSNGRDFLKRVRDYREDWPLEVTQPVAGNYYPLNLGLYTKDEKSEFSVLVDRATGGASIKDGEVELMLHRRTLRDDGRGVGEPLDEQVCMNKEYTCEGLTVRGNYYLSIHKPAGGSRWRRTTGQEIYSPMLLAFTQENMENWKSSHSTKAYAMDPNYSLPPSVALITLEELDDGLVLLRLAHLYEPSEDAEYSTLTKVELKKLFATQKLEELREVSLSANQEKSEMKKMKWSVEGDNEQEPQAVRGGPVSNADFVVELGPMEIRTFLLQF

[2] = target: T1, Jack Bean α-mannosidase (JBα-man); experiment: Inhibition assay against Jack Bean α-mannosidase (hydrolysis of p-nitrophenyl-α-D-mannopyranoside); format: biochemical
Experimental: p-nitrophenyl-α-D-mannopyranoside and α-mannosidase (EC 3.2.1.24, from Jack Bean, Km = 2.0 mM pH 5.5) were purchased from Sigma Aldrich(St. Louis, MO, USA).
General procedure for Inhibition assay with basic quench: Inhibitory potencies were determined spectrophotometrically (Versamax 96-well plate spectrophotometer, Molecular Devices Corporation, Sunnyvale, CA, USA) measuring the residual hydrolytic activities of the mannosidase against p-nitrophenyl-α-D-mannopyranoside in the presence and absence of the inhibitor. All kinetics were performed at 25 °C and started by enzyme addition (0.015 U/mL) in a 100 µL assay medium (acetate buffer, 0.2 M, pH = 5) containing substrate (varying concentration from Km/8 to 2Km value) in presence or absence of various concentrations of inhibitor. After 40–50 min incubation, the reaction was quenched by addition of 1M Na2CO3 (100 µL). The absorbance of the resulting solution was determined at 405 nm. Ki values were determined in duplicate or triplicate, using the Dixon and Lineweaver–Burk graphical methods with Microsoft Excel 97-03, or using non-linear regression with GraphPad Prism 7 Software. As the inhibitors are only partially soluble in water, they were dissolved in DMSO for concentrated mother solutions and DMSO/buffer for diluted solutions with a final DMSO concentration under 4% in all wells. Previously, the stability of the enzymes in presence of various concentrations of DMSO was controlled and the enzyme activity was unaffected.
General procedure for inhibition assay measured continuously: The release of p-nitrophenol was measured continuously at 385 nm to determine initial velocities. […] Under these conditions, the p-nitrophenolate released led to optical densities linear with both reaction time and concentration of the enzyme. Ki values were determined in duplicate or quadruplate, using the Dixon graphical method. As the inhibitors are only partially soluble in water, they were dissolved in DMSO for concentrated mother solutions and DMSO/buffer for diluted solutions with a final DMSO concentration under 5% in all vials. […]

[3] = calix[4]arene cluster and its monovalent reference, read-out: Ki

Compound: O=C1CN(Cc2cn(CCCCCCCCCN3C[C@H](O)[C@@H](O)[C@H](O)[C@H]3CO)nn2)C(=O)CN(Cc2cn(CCCCCCCCCN3C[C@H](O)[C@@H](O)[C@H](O)[C@H]3CO)nn2)C(=O)CN(Cc2cn(CCCCCCCCCN3C[C@H](O)[C@@H](O)[C@H](O)[C@H]3CO)nn2)C(=O)CN(Cc2cn(CCCCCCCCCN3C[C@H](O)[C@@H](O)[C@H](O)[C@H]3CO)nn2)C(=O)CN(Cc2cn(CCCCCCCCCN3C[C@H](O)[C@@H](O)[C@H](O)[C@H]3CO)nn2)C(=O)CN1Cc1cn(CCCCCCCCCN2C[C@H](O)[C@@H](O)[C@H](O)[C@H]2CO)nn1 [Compound 1a]
- rp/n [1]: 3 and ~ 3

Compound: O=C1CN(Cc2cn(CCCCCCCCCN3C[C@H](O)[C@@H](O)[C@H](O)[C@H]3CO)nn2)C(=O)CN(Cc2cn(CCCCCCCCCN3C[C@H](O)[C@@H](O)[C@H](O)[C@H]3CO)nn2)C(=O)CN(Cc2cn(CCCCCCCCCN3C[C@H](O)[C@@H](O)[C@H](O)[C@H]3CO)nn2)C(=O)CN(Cc2cn(CCCCCCCCCN3C[C@H](O)[C@@H](O)[C@H](O)[C@H]3CO)nn2)C(=O)CN(Cc2cn(CCCCCCCCCN3C[C@H](O)[C@@H](O)[C@H](O)[C@H]3CO)nn2)C(=O)CN(Cc2cn(CCCCCCCCCN3C[C@H](O)[C@@H](O)[C@H](O)[C@H]3CO)nn2)C(=O)CN(Cc2cn(CCCCCCCCCN3C[C@H](O)[C@@H](O)[C@H](O)[C@H]3CO)nn2)C(=O)CN1Cc1cn(CCCCCCCCCN2C[C@H](O)[C@@H](O)[C@H](O)[C@H]2CO)nn1 [Compound 1b]
- rp/n [1]: 3 and ~ 3

Compound: CC(C)(C)c1cc2c(OCc3cn(CCCN4C[C@H](O)[C@@H](O)[C@H](O)[C@H]4CO)nn3)c(c1)Cc1cc(C(C)(C)C)cc(c1OCc1cn(CCCN3C[C@H](O)[C@@H](O)[C@H](O)[C@H]3CO)nn1)Cc1cc(C(C)(C)C)cc(c1OCc1cn(CCCN3C[C@H](O)[C@@H](O)[C@H](O)[C@H]3CO)nn1)Cc1cc(C(C)(C)C)cc(c1OCc1cn(CCCN3C[C@H](O)[C@@H](O)[C@H](O)[C@H]3CO)nn1)C2 [Compound 2]
- Ki [1, 3]: 1.5 µM
- rp/n (affinity enhancement per iminosugar) ([1]; calix[4]arene cluster): 70 and ~ 70

Compound: CCCc1cn(CCCCCCN2C[C@H](O)[C@@H](O)[C@H](O)[C@H]2CO)nn1 [Compound 3]
- Ki ([1]; monovalent reference, C6 chain, read-out: Ki): 322 µM

Compound: CCCc1cn(CCCCCCCCCN2C[C@H](O)[C@@H](O)[C@H](O)[C@H]2CO)nn1 [Compound 4]
- Ki ([1]; monovalent reference, C9 chain, read-out: Ki): 188 µM

Compound: OCc1cn(CCCN2C[C@H](O)[C@@H](O)[C@H](O)[C@H]2CO)nn1 [Compound 5]
- Ki [1, 3]: 400 µM

Compound: CC(C)(C)c1cc2c3c(c1)Cc1cc(C(C)(C)C)cc(c1OCc1cn(CCCCCCN4C[C@H](O)[C@@H](O)[C@H](O)[C@H]4CO)nn1)Cc1cc(C(C)(C)C)cc(c1OCc1cn(CCCCCCN4C[C@H](O)[C@@H](O)[C@H](O)[C@H]4CO)nn1)Cc1cc(C(C)(C)C)cc(c1OCc1cn(CCCCCCN4C[C@H](O)[C@@H](O)[C@H](O)[C@H]4CO)nn1)Cc1cc(C(C)(C)C)cc(c1OCc1ccc(cc1)CO3)Cc1cc(C(C)(C)C)cc(c1OCc1cn(CCCCCCN3C[C@H](O)[C@@H](O)[C@H](O)[C@H]3CO)nn1)Cc1cc(C(C)(C)C)cc(c1OCc1cn(CCCCCCN3C[C@H](O)[C@@H](O)[C@H](O)[C@H]3CO)nn1)Cc1cc(C(C)(C)C)cc(c1OCc1cn(CCCCCCN3C[C@H](O)[C@@H](O)[C@H](O)[C@H]3CO)nn1)C2 [Compound 7a]
- inhibition mode [2]: competitive inhibitors
- Ki ([2]; means ± SD, triplicate): 7.7 ± 0.7 µM
- rp/n (relative inhibition potency per DNJ unit) ([2]; rp/number of DNJ units): 7

Compound: OC[C@@H]1[C@@H](O)[C@H](O)[C@H](O)c2nccn21 [mannoimidazole]
- Ki ([1]; monovalent inhitope, read-out: Ki (monovalent)): 0.11 µM
